Measurements published in patent publication US8980936B2, “Phenoxy-pyrrolidine derivative and its use and compositions” (Thesan Pharmaceuticals, Inc., priority 2007, dated 2015).
pIC50: −log10 of the molar value. Blank lines part the entries; values can stand above or below the molecule they belong to.

Assays:
male Syrian hamsters = assay: Hamster ear model: inhibition of sebum production; format: in vivo, Syrian hamster
Text: The hamster ear model is a validated animal model for testing whether compounds are capable of modulating sebaceous gland function and sebum secretion. Luderschmidt et al, Arch. Derm. Res. 258, 185-191 (1977). This model uses male Syrian hamsters, whose ears contain sebaceous glands. The compound of the invention was screened in this model according to the procedure outlined below. In these studies, the hamsters are topically dosed twice daily (BID) for 2 weeks, 5 days a week (Monday to Friday). Each dose consisted of 25 μl of vehicle control or formulated test article, which was evenly applied to ˜3 cm^2 of the ventral surfaces of both the right and left ears. At sacrifice, skin punches are taken for lipid analysis, histology and skin concentrations of the test compound.
Male Syrian hamsters aged 9 to 10 weeks were introduced into the laboratory environment and acclimated for 2 weeks prior to use in the study. Each group consisted of 5 animals and run in parallel with vehicle and positive controls. […]
Animals were dosed topically twice daily, five days a week, for 2 weeks. Each dose consisted of 25 μl of vehicle control or drug. The dose was applied to the ventral surfaces of both the right and left ears. All animals were sacrificed approximately 18-24 hours after the final dose. The right ears were collected from each animal and used for sebum analysis.
The ears were prepped for HPLC analysis in the following manner. One 8 mm distal biopsy punch was taken, just above the anatomical “V” mark in the ear to normalize the sample area. The punch was pulled apart. The ventral biopsy surface (the area where the topical dose was directly applied to the sebaceous glands) was retained for testing and the dorsal surface of the biopsy punch was discarded.
Tissue samples were blown with N2 gas and stored at −80° C. under nitrogen until HPLC analysis. In addition to ear samples, an aliquot of each drug and vehicle (at least 250 μl) was also stored at −80° C. for inclusion in the HPLC analysis.
HPLC analysis was carried out on an extract of the tissue sample. Tissue samples were contacted with 3 ml of solvent (a 4:1 admixture of 2,2,4-trimethylpentane and isopropyl alcohol). The mixture was shaken for 15 minutes and stored overnight at room temperature, protected from light. The next morning 1 milliliter of water was added to the sample and shaken for 15 minutes. The sample was then centrifuged at approximately 1500 rpm for 15 minutes. Two ml of the organic phase (top layer) was transferred to a glass vial, dried at 37° C., under nitrogen, for approximately 1 hour, and then lyophilized for approximately 48 hours. The samples were then removed from the lyophilizer and each vial was reconstituted with 600 μl of solvent A (trimethylpentane/tetrahydrofuran (99:1). The samples were then recapped and vortexed for 5 minutes.
200 μl of each sample was then transferred to a pre-labeled 200 μl HPLC vial with 200 μL glass inserts. The HPLC vials were placed in the autosampler tray for the Agilent 1100 series HPLC unit. The Agilent 1100 HPLC system consisted of a thermostated autosampler, a quaternary pump, a column heater, and an A/D interface module. All components were controlled by Agilent ChemStation software. A Waters Spherisorb S3W […] analytical column was maintained at 30° C. by the Agilent column heater unit. The HPLC autosampler was programmed to maintain the sample temperature at 20° C. throughout the run.
10 μL of each sample was injected in triplicate into the column. Two solvents were used for the solvent gradient. Solvent A was an admixture of trimethylpentane and tetrahydrofuran (99:1). Solvent B was ethyl acetate. The gradient utilized is described in the table below: […]
The Sedex 75 Evaporative Light Scattering Detector (ELSD) was operated at 45° C. with a gain of 5, and N2 pressure maintained at 3.1 bar. Analog signal obtained by the instrument was sent to the Agilent A/D interface module where it was converted to a digital output. […]

[1] = molecular target: T1, SCD1 enzyme in intact human cells (Homo sapiens, UniProt O00767); assay: Human adipocyte (AdipoRed) assay: production of triglycerides; format: cell-based; conditions: differentiated human subcutaneous adipocytes; 6 days compound treatment; mean of N=6; read-out: IC50, inhibition of the production of triglycerides
T1 construct: The cells were received as pre-adipocytes and then differentiated for 5 days in a 384 well format; host or cells: cryopreserved human subcutaneous preadipocytes, differentiated to adipocytes
T1 sequence (O00767 1-359): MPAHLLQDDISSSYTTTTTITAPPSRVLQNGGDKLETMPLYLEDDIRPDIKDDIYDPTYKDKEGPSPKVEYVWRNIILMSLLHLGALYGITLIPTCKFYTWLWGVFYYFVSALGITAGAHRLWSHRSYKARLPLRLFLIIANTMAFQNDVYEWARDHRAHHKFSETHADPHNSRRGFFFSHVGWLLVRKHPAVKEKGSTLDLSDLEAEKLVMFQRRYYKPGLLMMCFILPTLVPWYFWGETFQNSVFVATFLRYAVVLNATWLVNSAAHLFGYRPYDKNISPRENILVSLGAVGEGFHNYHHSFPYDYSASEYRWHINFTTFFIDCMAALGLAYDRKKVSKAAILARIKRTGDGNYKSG
Protocol: The role of SCD1 is believed to be similar in adipocytes and sebocytes. The ability of the compound to inhibit the SCD1 enzyme in intact human cells was determined using the Human AdipoRed assay as described below. The cells were received as pre-adipocytes and then differentiated for 5 days in a 384 well format. The compound is added at various concentrations for 6 days. The production of triglycerides was then assessed by a unique dye which specifically binds to secreted triglycerides. The ability to inhibit the production of triglycerides is expressed as an IC50.
Cryopreserved subcutaneous preadipocytes (Cat #: PT-5001 Supplier: Cambrex Bio Science) were briefly thawed in 37 C and spin down at 1000 rpm for 5 minutes. Preadipocyte are resuspended in 30 ml of Growth Media (GM, Cat #: PT-8202 Cambrex Bio Science) and are diluted to final concentration of 75,000 cells/ml. 40 μl of Cells are then plated into wells of 384-Well BD Falcon polystyrene assay plate at the density of 3,000 cells (40 μl) per well. […]
After 5 days' differentiation, cells were treated with 2 μl of the compound from 96-well compound plate in duplicate by Biomek FX. […] The accumulation of intracellular triglycerides is then quantified by measuring fluoresce at 572 nm on a SpectraMax M5 microplate reader.

[2] = molecular target: T2, stearoyl CoA desaturase (SCD1) (Rattus norvegicus, UniProt P07308); assay: Rat microsomal assay: conversion of labeled stearoyl CoA to oleoyl CoA by LC/MS/MS; format: biochemical; conditions: rat liver microsomes; 40 μM substrate (2× Km); mean of N=3; read-out: IC50, inhibition of SCD1 activity (conversion of stearoyl CoA to oleoyl CoA)
T2 construct: Rat liver microsomes are allowed to react with stearoyl-coenzyme A labeled with D3; from tissue
T2 sequence (P07308 1-358): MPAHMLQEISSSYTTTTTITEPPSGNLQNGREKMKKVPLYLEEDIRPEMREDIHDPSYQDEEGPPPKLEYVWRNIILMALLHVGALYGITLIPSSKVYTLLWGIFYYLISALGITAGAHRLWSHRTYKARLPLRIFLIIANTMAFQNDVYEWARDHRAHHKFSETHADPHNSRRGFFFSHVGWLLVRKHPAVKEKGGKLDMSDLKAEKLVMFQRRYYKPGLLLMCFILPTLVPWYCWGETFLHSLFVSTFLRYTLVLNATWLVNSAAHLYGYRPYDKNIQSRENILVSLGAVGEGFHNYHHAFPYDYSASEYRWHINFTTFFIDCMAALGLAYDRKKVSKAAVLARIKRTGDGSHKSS
Protocol: As described below, the assay measures the conversion of labeled stearoyl CoA to oleoyl CoA using LC/MS/MS.
In order to increase SCD1 activity in rat liver microsomes, Sprague Dawley rats are fasted for 40 hours. Following fasting diet is replaced with free fatty acid deficient chow ad libitum for 48 hours. Rats are then euthanized using CO2 asphyxiation and their livers are removed. Livers are weighed, minced and placed in homogenization buffer ([…], 50 mM Tris-HCl, pH 7.5, 5 mM EDTA, 1.5 mM GSH) on ice. Microsomes are isolated by homogenization with a polytron and several centrifugation steps. Following final centrifugation, the resulting pellet is resuspended in homogenization buffer and protein concentration is determined. Aliquots are stored at −80° C. until use.
Rat liver microsomes are allowed to react with stearoyl-coenzyme A labeled with D3 in the presence of the compound of Formula I to test the compound's ability to inhibit the conversion of stearoyl-coenzyme A to oleoyl coenzyme A. The reaction is terminated using acetonitrile. Free fatty acids are extracted by saponification of the samples with 2M KOH at 70° C. […] Samples are reconstituted in 9:1 Methanol:Water, with 2 ug/ml heptadecanoic acid added as an internal standard, and analyzed by LC/MS/MS. The ability to inhibit the conversion of stearoyl CoA to oleoyl CoA is expressed as an IC50.

sebum production = conditions: background statement, cited from earlier work
[3] = dose response experiment, formulated in propylene glycol:ethanol 30.70 (w/v), topical
[4] = dosed at 1.5% in propylene glycol/transcutanol/ethanol 20/20/60, topical BID, 2 weeks, hamster ear
[5] = two week topical BID application, propylene glycol:ethanol 30.70

pIC50 [1]: 8.17
pIC50 [2]: 8.24
SMILES: O=C(COc1ccc(CO)cc1)N1CC[C@H](Oc2ccccc2C(F)(F)F)C1 [compound of Formula I, (S)-2-(4-(hydroxymethyl)phenoxy)-1-(3-(2-(trifluoromethyl)phenoxy)pyrroli-din-1-yl)ethanone]
CE and WE production, dose response (male Syrian hamsters; [3]): dose dependent decrease of both CE and WE production
sebaceous gland size and number, histology (male Syrian hamsters; [3]): Dose related changes in sebaceous gland size and number
reduction in cholesterol ester (CE) compared to vehicle control (male Syrian hamsters; [4]): 62%
reduction in wax ester (WE) compared to vehicle control (male Syrian hamsters; [4]): 82%
sebaceous gland size (male Syrian hamsters; [4]): reduction in sebaceous gland size
ED50 based on WE reduction (male Syrian hamsters; [5]): 0.3%
ED50 based on WE reduction, per area (male Syrian hamsters; [5]): 0.025 mg/cm^2

SMILES: CC1=C(/C=C/C(C)=C/C=C/C(C)=C\C(=O)O)C(C)(C)CCC1 [Isotretinoin]
suppression of sebum production (sebum production): up to 90%

SMILES: CCOC(=O)/C=C(C)/C=C/C=C(C)/C=C/c1c(C)cc(OC)c(C)c1C [etretinate]
effect on sebum synthesis (sebum production; Zouboulis 2004): do not reduce sebum synthesis
